In patent US12275850B2, “Organic-inorganic hybrid material comprising a metal and lignin, processes for preparing the same and uses thereof” (UPM-KYMMENE CORPORATION, priority 2018, dated 2025):

Tests used:
Experiment in all cases: MIC, agar dilution / broth microdilution
Format in all cases: cell-based
Settings in all cases: mainly agar dilution; g/l of material; for Copper MIC refers to concentration of copper
[1] = system: Campylobacter jejuni
Experimental: (§1) The antimicrobial activity of organic-inorganic hybrid materials of the present invention was evaluated through in vitro test of antimicrobial susceptibility with broth microdilution method and agar dilution method (CLSI protocol—Clinical and Laboratory Standards Institute). […] Agar dilution assay was used: the organic-inorganic hybrid materials were incorporated at different concentrations into the agar medium (specific for each microorganism) and after solidification of the medium, the inoculum (10^4 CFU/ml for the fungi and […] for the bacteria) was applied to the agar surface. Broth microdilution assay: the organic-inorganic hybrid materials were diluted into specific liquid media in the presence of a well-defined microbial suspension (10^4 CFU/ml for the fungi and […] for the bacteria). In the broth microdilution assay, the organic-inorganic hybrid materials were diluted into specific liquid media, but they resulted insoluble with the formation of precipitates on the bottom of the wells, consequently the MIC were mainly determinate with agar dilution assay. Two controls were prepared for the tests: a positive control of activity through use of Miconazole (against fungi) and Ceftriaxone (against bacteria). All the tests have been carried out in triplicate, giving very similar inhibition results. In parenthesis, the concentration (g/l) of copper relative to the corresponding copper-lignin derivative. For copper sulphate pentahydrate (copper) and copper hydroxide (copper 2) the MIC refer to the concentration of copper (g/l): […]

[2] = system: Xanthomonas campestris
Experimental: as §1

[3] = system: Rizoctonia solani
Experimental: as §1

[4] = system: Pseudomonas syringae pv. actinidiae
Experimental: as §1

[5] = system: Erwinia amylovora
Experimental: as §1

[6] = system: Monilia laxa
Experimental: as §1

[7] = system: Alternaria solani
Experimental: as §1

[8] = system: Salmonella enteriditis
Experimental: as §1

[9] = system: Staphylococcus aureus
Experimental: as §1

[10] = system: Candida albicans
Experimental: as §1

[11] = system: Septoria tritici
Experimental: as §1

[12] = system: Botritis cinerea
Experimental: as §1

[13] = system: Xanthomonas arboricola pv. pruni
Experimental: as §1

[14] = system: Fusarium solani
Experimental: as §1

[15] = system: Pseudomonas aeruginosa
Experimental: as §1

[16] = system: Escherichia coli
Experimental: as §1

- MIC (g/l) C. jejuni [1]: <0.16 g/L
- MIC (g/l) X. campestris [2]: 0.32 g/L
- MIC (g/l) R. solani [3]: 0.32 g/L
- MIC (g/l) P. syringae [4]: 0.32 g/L
- MIC (g/l) E. amylovora [5]: 0.65 g/L
- MIC (g/l) M. laxa [6]: 0.65 g/L
- MIC (g/l) A. solani [7]: 5.2 g/L
- MIC (g/l) S. enteridis [8]: 0.65 g/L
- MIC (g/l) S. aureus [9]: 0.32 g/L
- MIC (g/l) C. albicans [10]: 1.30 g/L
- MIC (g/l) S. tritici [11]: 0.65 g/L
- MIC (g/l) B. cinerea [12]: 5.2 g/L
- MIC (g/l) X. arboricola [13]: <0.16 g/L
- MIC (g/l) F. solani [14]: 10.4 g/L
- MIC (g/l) P. aeruginosa [15]: 1.30 g/L
- MIC (g/l) E. coli [16]: 0.32 g/L
Structure (SMILES): [Cu+2].[OH-].[OH-] [Copper, Copper hydroxide]
